We go through 1 compound from patent US8173695B2, “Kappa selective opioid receptor antagonist” (Eli Lilly and Company, priority 2008, dated 2012).

Values joined by “and” are separate entries in the source; they are usually repeats but may differ in a detail not shown here. Identical values can stand only once.

Series [1] concerns the target T1, delta receptors (striatum) (Rattus norvegicus, UniProt P33533).
T1 construct: from tissue; host or cells: striatum of living Sprague Dawley rats
Kind of series: Opioid receptor occupancy (RO) in rat brain, tracer naltriben. The series is classed as in vivo.

Another series concerns the target T2, mu receptors (striatum) (Rattus norvegicus, UniProt P33535).
T2 construct: from tissue; host or cells: striatum of living Sprague Dawley rats
Kind of series: Opioid receptor occupancy (RO) in rat brain, tracer naltrexone. Type of series: in vivo.

In series [2] the target is T3, kappa receptors (striatum) (Rattus norvegicus, UniProt P34975).
T3 construct: dose-dependent level of kappa receptor occupancy in the striatum; from tissue; host or cells: striatum of living Sprague Dawley rats
The experiment in a line: Opioid receptor occupancy (RO) in rat brain, tracer GR103545. The series is classed as in vivo. To be noted: 5.5 hrs following oral administration.

Series [3] deals with alcohol preferring (P) rats. The experiment in a line: P rat 12 hr ethanol drinking. Type of series: in vivo. To be noted: p<0.05 versus vehicle. The procedure: The test animals are selectively-bred alcohol preferring (P) rats. These rats voluntarily consume more than 5 g/kg of ethanol per day and meet all of the perceived criteria for an animal model of alcoholism. They attain blood alcohol contents between 50-200 mg %; they will operant respond to obtain ethanol; they consume ethanol for pharmacological effects and not taste, smell or caloric properties; and they develop metabolic and physiological tolerance and eventually dependence with chronic ethanol access.
Female P rats are obtained from a breeding facility at the Indiana University Medical Center in Indianapolis, Ind., USA. Rats are individually housed in an environmentally controlled facility and maintained on a 12 hr light/dark cycle (lights off at 1500 hours).
All drugs are mixed fresh prior to use and administered in a volume of 1 mL/kg. […]
Following a 4-day acclimation to the colony, rats receive homecage access to a bottle of EtOH (10% v/v; Ancare, Bellmore, N.Y.) in addition to the standard bottle of water. […] Consumption of EtOH and water are monitored for approximately 6-9 months prior to drug testing. Food and fluid intake are measured via force transduction with a PC-controlled Drinking & Feeding Monitoring System (TSE Systems, Bad Homburg, Germany). Consumption of food, water, and 15% (v/v) EtOH are continuously monitored for 12 hrs following drug or vehicle administration. […]

The nature of series [4]: Brain (striatum) exposure levels after oral dosing, LC/MS/MS. Type of series: in vivo. The settings on record: male, Sprague Dawley (Harlan), rat striatum. The method, then: Male Harlan Sprague Dawley rats are treated with the compound of Example 1A of the present invention using a 3% lactic acid/water oral formulation at doses of […], 0.3, 1, 3, 10 and 30 mg/kg. […] The increasing levels of kappa receptor occupancy are driven by roughly proportional increases in plasma and brain exposure of the compound of Example 1A of the present invention up to a dose of 30 mg/kg.
Exposure levels of the compound of Example 1A in the rat striatum following administration were determined in the same samples used to quantify the level of opioid receptor occupancy. Levels of Example 1A are detected by LC/MS/MS (API 4000, MDS Sciex) and quantified from a standard curve of Example 1A prepared in rat brain homogenate.

For another series, the system named is Sprague Dawley rats. Kind of series: Prepulse inhibition, reversal of morphine induced disruption of PPI. Type of series: in vivo, rat.
Another series concerns Male Fischer F-344 rats. Kind of series: Stress-induced hyperthermia (in rat). Type of series: in vivo. To be noted: for stress-induced hyperthermia (T2−T1): in °C.
Where [5] appears, read: Study 1, 1, 3 and 10 mg/kg p.o.

T1 sequence (P33533 whole entry): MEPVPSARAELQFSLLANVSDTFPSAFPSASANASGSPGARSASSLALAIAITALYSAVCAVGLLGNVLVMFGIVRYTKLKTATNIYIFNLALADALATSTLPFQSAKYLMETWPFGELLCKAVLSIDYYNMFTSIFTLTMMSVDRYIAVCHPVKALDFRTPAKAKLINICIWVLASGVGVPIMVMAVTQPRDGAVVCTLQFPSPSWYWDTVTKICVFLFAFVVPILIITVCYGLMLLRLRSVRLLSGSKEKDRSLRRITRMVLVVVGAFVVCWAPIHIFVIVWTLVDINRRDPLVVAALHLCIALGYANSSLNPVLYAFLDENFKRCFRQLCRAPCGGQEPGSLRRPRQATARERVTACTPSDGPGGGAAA
T2 sequence (P33535 whole entry): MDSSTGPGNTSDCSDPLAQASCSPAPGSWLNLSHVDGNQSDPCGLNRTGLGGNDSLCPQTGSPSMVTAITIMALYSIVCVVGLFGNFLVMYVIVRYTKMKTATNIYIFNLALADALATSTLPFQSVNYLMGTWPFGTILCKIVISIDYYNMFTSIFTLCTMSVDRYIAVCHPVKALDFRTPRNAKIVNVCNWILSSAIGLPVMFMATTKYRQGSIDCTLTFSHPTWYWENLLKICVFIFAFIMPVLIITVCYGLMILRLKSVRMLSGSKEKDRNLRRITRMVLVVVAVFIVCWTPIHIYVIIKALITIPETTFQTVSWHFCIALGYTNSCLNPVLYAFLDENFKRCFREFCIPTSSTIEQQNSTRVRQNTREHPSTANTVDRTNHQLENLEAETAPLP
T3 sequence (P34975 whole entry): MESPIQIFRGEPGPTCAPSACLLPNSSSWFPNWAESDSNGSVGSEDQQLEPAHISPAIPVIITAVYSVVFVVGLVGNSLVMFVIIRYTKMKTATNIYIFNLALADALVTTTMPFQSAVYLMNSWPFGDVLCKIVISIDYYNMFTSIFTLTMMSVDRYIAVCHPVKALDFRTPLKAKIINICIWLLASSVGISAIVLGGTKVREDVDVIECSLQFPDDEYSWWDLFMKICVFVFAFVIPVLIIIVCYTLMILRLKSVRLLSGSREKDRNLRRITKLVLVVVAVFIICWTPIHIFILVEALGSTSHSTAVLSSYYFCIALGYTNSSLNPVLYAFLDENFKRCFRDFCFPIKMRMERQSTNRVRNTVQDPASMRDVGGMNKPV

On to `Cc1cc(C)cc([C@@H]2CCCN2Cc2ccc(Oc3ccc(C(N)=O)cc3F)cc2)c1` (single isomer, unassigned) [Example 1A], for which the values for the ED50 (in series [1] (oral); at mu receptors (striatum) (oral); in series [2]) were more than 30 mg/kg, more than 30 mg/kg and 0.45 mg/kg, respectively. Also, in series [1] (oral doses up to 30 mg/kg), the delta receptor occupancy result is given as “no significant occupancy”. In addition, the mu receptor occupancy result at mu receptors (striatum) (oral doses up to 30 mg/kg) is given as “no significant occupancy”. The “amount of ethanol consumed” value in series [3] (1 mg/kg orally) and in series [3] (3 mg/kg orally) was “decreased” in each case. The concentration at 5.5 h came out at 15.3 ng/g in series [4] (0.1 mg/kg, oral dose .1 mg/kg); 7.23 ng/g in series [4] (0.3 mg/kg, oral dose .3 mg/kg); 19.6 ng/g in series [4] (oral dose 1 mg/kg); 39.2 ng/g in series [4] (oral dose 3 mg/kg); 171 ng/g in series [4] (oral dose 10 mg/kg); 266 ng/g in series [4] (oral dose 30 mg/kg). The “% Inhibition (PPI), individual rats” value with Sprague Dawley rats (10 mg/kg Example 1A p.o./20 mg/kg morphine sc) is 42.77% and 21.98% and 40.70% and 0.18% and 21.00% and 21.21% and 50.34% and 26.48% and 18.04% and 21.07% and 29.49% and 50.16% and 18.66% and 63.46%; in the series with Sprague Dawley rats (30 mg/kg Example 1A p.o./20 mg/kg morphine sc), 30.93% and 6.85% and 16.56% and 54.32% and 18.94% and 45.40% and 42.78% and 46.29% and 39.26% and 20.35% and 40.02% and 8.61% and 57.12% and 41.32%. In the series on Sprague Dawley rats (rats, Table 7), the “reversal of sensory motor gating deficits induced by the Mu agonist morphine” value was “can reverse”. The “stress-induced hyperthermia (T2−T1)” value in the series with Male Fischer F-344 rats (Study 1, 1 mg/kg po, 60 min pretreatment, body temperature in degrees C.) amounted to 0.84±0.07; in the series with Male Fischer F-344 rats (Study 1, 3 mg/kg po, 60 min pretreatment), 0.80±0.10; in the series with Male Fischer F-344 rats (Study 1, 10 mg/kg po, 60 min pretreatment), 0.75±0.11; in the series on Male Fischer F-344 rats (Study 2, 10 mg/kg Example 1A alone, po) it was 0.74±0.04. The “baseline core body temperature” value in the series on Male Fischer F-344 rats (setting [5]) was “not affected”; in the series on Male Fischer F-344 rats (Study 2, 1, 3 and 10 mg/kg p.o. together with 1 mg/kg chlordiazepoxide), “not affected”. Also, the “reduction in stress-induced hyperthermia (T2−T1), in words” value with Male Fischer F-344 rats (setting [5]) was “dose-dependent, but non-significant, reduction”. The “reduction in stress-induced hyperthermia, in words” value in the series on Male Fischer F-344 rats (Study 2, together with 1 mg/kg chlordiazepoxide, significant reduction p<0.05) was “increases the efficacy of a sub-threshold dose of chlordiazepoxide”.

Broadly, the ED50 is the dose that gives a 50% effect, or the effect in half of the subjects.
